Reference: patent US5391540A, “Substituted pyridine compounds” (Rohm and Haas Company, priority 1993, dated 1995)

Assays:
Type in all cases: in vivo
Bygr = assay: plant injury after spraying emerged plants (Table D); parameters: scale not given here
Text: (§1) Topsoil (silt loam) is sieved through a screen having 1.27 cm openings. […] This mixture is steam sterilized and then placed in aluminum pans 6.985 cm deep having ten holes in the bottom each 0.635 cm in diameter. The soil mixture is compacted to a depth of 1.27 cm. from the top of the pan. A predetermined number of seeds of each of several dicotyledonous and monocotyledonous annual plant species and/or vegetative propagules for the perennial plant species are placed on the soil and pressed into the soil surface. The seeds and/or vegetative propagules are covered with 1.27 cm of a mixture of 50% topsoil and 50% of a mixture of Canadian sphagnum peat moss, vermiculite and a wetting agent. The pans are then placed on a capillary mat on a greenhouse bench and subirrigated as needed.
(§2) In the following Table D the legends used to identify the plant species are the same as those used in the preceding Table B.

Cobu = assay: as above; parameters: scale not given here
Text: as §1, §2

Grft = assay: as above; parameters: scale not given here
Text: as §1, §2

Lacg = assay: as above; parameters: scale not given here
Text: as §1, §2

Mogl = assay: as above; parameters: scale not given here
Text: as §1, §2

Corn = assay: as above; parameters: scale not given here
Text: as §1, §2

Sobe = assay: as above; parameters: scale not given here
Text: as §1, §2

Whez = assay: as above; parameters: scale not given here
Text: as §1, §2

Grso = assay: as above; parameters: scale not given here
Text: as §1, §2

Morningglory = assay: Pre-emergent herbicidal activity (Table A); conditions: Ipomoea, pre-emergence, Mogl, 11.2 kg/ha, 10-14 days, read-out: herbicidal rating (% inhibition)
How it was run: (§3)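 Seeds or vegetative propagules were set on topsoil compacted to 0.95 to 1.27 cm below the pan rim, then covered with soil thoroughly mixed with a known amount of test compound in acetone or water carrier. Ratings follow a scale of percent inhibition per species.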

Barnyardgrass = assay: Pre-emergent herbicidal activity (Table A); conditions: Echinochloa crus-galli, pre-emergence, Bygr, 11.2 kg/ha, 10-14 days, read-out: herbicidal rating (% inhibition)
How it was run: as §3

Cocklebur = assay: Pre-emergent herbicidal activity (Table A); conditions: Xanthium strumarium, pre-emergence, Cobu, 11.2 kg/ha, 10-14 days, read-out: herbicidal rating (% inhibition)
How it was run: as §3

Yellow Nutsedge = assay: Pre-emergent herbicidal activity (Table A); conditions: Cyperus, pre-emergence, Yens, 11.2 kg/ha, 10-14 days, read-out: herbicidal rating (% inhibition)
How it was run: as §3

Downy Brome = assay: Pre-emergent herbicidal activity (Table A); conditions: Bromus tectorum, pre-emergence, Dobr, 11.2 kg/ha, 10-14 days, read-out: herbicidal rating (% inhibition)
How it was run: as §3

Velvetleaf = assay: Pre-emergent herbicidal activity (Table A); conditions: Abutilon theophrasti, pre-emergence, Vele, 11.2 kg/ha, 10-14 days, read-out: herbicidal rating (% inhibition)
How it was run: as §3

Dobr = assay: plant injury after spraying emerged plants (Table D)
Text: Topsoil (silt loam) is sieved through a screen having 1.27 cm openings. In some of the tests the soil was mixed with fertilizer (1225 g/cu. m of 12/5/9 containing isobutylidene diurea), while in other tests the fertilizer was omitted. This mixture is steam sterilized and then placed in aluminum pans 6.985 cm deep having ten holes in the bottom each 0.635 cm in diameter. The soil mixture is compacted to a depth of 1.27 cm. from the top of the pan. A predetermined number of seeds of each of several dicotyledonous and monocotyledonous annual plant species and/or vegetative propagules for the perennial plant species are placed on the soil and pressed into the soil surface. The seeds and/or vegetative propagules are covered with 1.27 cm of a mixture of 50% topsoil and 50% of a mixture of Canadian sphagnum peat moss, vermiculite and a wetting agent. The pans are then placed on a capillary mat on a greenhouse bench and subirrigated as needed. After the plants reach the desired stage (9 to 14 days, 1 to 3 true leaf stage), each pan (except the control pans) is removed to a spraying chamber and sprayed by means of an atomizer, operating at a spray pressure of 170.3 kPa ([…]) at the application rates noted in Table D. In the spray solution is an amount of an emulsifying agent mixture (35% butylamine salt of dodecylbenzenesulfonic acid and 65% tall oil condensed with ethylene oxide in the ratio of 11 mols of ethylene oxide/mol of tall oil) to give a spray solution or suspension. The spray solution or suspension contains a sufficient amount of the candidate chemical in order to give application rates of the active ingredient corresponding to those shown in Table D below while applying a total amount of solution or suspension equivalent to 1870 L/Ha (200 gallons/acre). The pans are returned to the greenhouse and watered as before and the injury to the plants as compared to the control pans is observed at approximately 10-14 days (usually 11 days).
as §2

COC(=O)c1c(OC)nc(C(F)(F)F)c(-c2nnc(C)o2)c1CC(C)C [Compound 103, 3-pyridinecarboxylic acid, 2-methoxy-5-(5-methy1-1,3,4-oxadiazo1-2-yl)-4-(2-methylpropyl)-6-(trifluoromethyl)-, methyl ester]
plant injury rating, Bygr (Bygr; 0.0701 kg/ha): 0
plant injury rating, Bygr (Bygr; 0.2803 kg/ha): 0
plant injury rating, Bygr (Bygr; 1.1219 kg/ha): 0
plant injury rating, Bygr (Bygr; 5.6050 kg/ha): 0
plant injury rating, Cobu (Cobu; 0.0701 kg/ha): 0
plant injury rating, Cobu (Cobu; 0.2803 kg/ha): 0
plant injury rating, Cobu (Cobu; 1.1219 kg/ha): 0
plant injury rating, Cobu (Cobu; 5.6050 kg/ha): 0
plant injury rating, Grft (Grft; 0.0701 kg/ha): 0
plant injury rating, Grft (Grft; 0.2803 kg/ha): 0
plant injury rating, Grft (Grft; 1.1219 kg/ha): 0
plant injury rating, Grft (Grft; 5.6050 kg/ha): 0
plant injury rating, Lacg (Lacg; 0.0701 kg/ha): 0
plant injury rating, Lacg (Lacg; 0.2803 kg/ha): 0
plant injury rating, Lacg (Lacg; 1.1219 kg/ha): 0
plant injury rating, Lacg (Lacg; 5.6050 kg/ha): 2
plant injury rating, Mogl (Mogl; 0.0701 kg/ha): 0
plant injury rating, Mogl (Mogl; 0.2803 kg/ha): 1
plant injury rating, Mogl (Mogl; 1.1219 kg/ha): 1
plant injury rating, Mogl (Mogl; 5.6050 kg/ha): 2
plant injury rating, Corn (Corn; 0.0701 kg/ha): 0
plant injury rating, Corn (Corn; 0.2803 kg/ha): 0
plant injury rating, Corn (Corn; 1.1219 kg/ha): 3
plant injury rating, Corn (Corn; 5.6050 kg/ha): 3
plant injury rating, Sobe (Sobe; 0.0701 kg/ha): 0
plant injury rating, Sobe (Sobe; 0.2803 kg/ha): 0
plant injury rating, Sobe (Sobe; 1.1219 kg/ha): 0
plant injury rating, Sobe (Sobe; 5.6050 kg/ha): 2
plant injury rating, Whez (Whez; 0.0701 kg/ha): 0
plant injury rating, Whez (Whez; 0.2803 kg/ha): 0
plant injury rating, Whez (Whez; 1.1219 kg/ha): 0
plant injury rating, Whez (Whez; 5.6050 kg/ha): 0
plant injury rating, Grso (Grso; 0.0701 kg/ha): 0
plant injury rating, Grso (Grso; 0.2803 kg/ha): 0
plant injury rating, Grso (Grso; 1.1219 kg/ha): 0
plant injury rating, Grso (Grso; 5.6050 kg/ha): 2
inhibition at 11200 g/ha (Morningglory): 75 to 100%
inhibition at 11200 g/ha (Barnyardgrass): 75 to 100%
inhibition at 11200 g/ha (Cocklebur): 0 to 24%
inhibition at 11200 g/ha (Yellow Nutsedge): 0 to 24%
inhibition at 11200 g/ha (Downy Brome): 50 to 74%
inhibition at 11200 g/ha (Velvetleaf): 75 to 100%
plant injury rating, Dobr (Dobr; 0.0701 kg/ha): 0
plant injury rating, Dobr (Dobr; 0.2803 kg/ha): 0
plant injury rating, Dobr (Dobr; 1.1219 kg/ha): 0
plant injury rating, Dobr (Dobr; 5.6050 kg/ha): 0

COC(=O)c1c(OC)nc(C(F)(F)Cl)c(C(=O)OC)c1CC(C)C [Compound 30, 3,5-pyridinedicarboxylic acid, 2-(chlorodifluoromethyl)-6-methoxy-4-(2-methylpropyl)-, dimethyl ester]
plant injury rating, Bygr (Bygr; 0.5605 kg/ha): 0
plant injury rating, Bygr (Bygr; 1.1210 kg/ha): 0
plant injury rating, Bygr (Bygr; 2.8025 kg/ha): 2
plant injury rating, Bygr (Bygr; 5.6050 kg/ha): 1
plant injury rating, Bygr (Bygr; 8.4075 kg/ha): 1
plant injury rating, Bygr (Bygr; 11.2100 kg/ha): 1
plant injury rating, Cobu (Cobu; 0.5605 kg/ha): 0
plant injury rating, Cobu (Cobu; 1.1210 kg/ha): 0
plant injury rating, Cobu (Cobu; 2.8025 kg/ha): 1
plant injury rating, Cobu (Cobu; 5.6050 kg/ha): 1
plant injury rating, Cobu (Cobu; 8.4075 kg/ha): 2
plant injury rating, Cobu (Cobu; 11.2100 kg/ha): 2
plant injury rating, Grft (Grft; 0.5605 kg/ha): 1
plant injury rating, Grft (Grft; 1.1210 kg/ha): 0
plant injury rating, Grft (Grft; 2.8025 kg/ha): 2
plant injury rating, Grft (Grft; 5.6050 kg/ha): 2
plant injury rating, Grft (Grft; 8.4075 kg/ha): 1
plant injury rating, Grft (Grft; 11.2100 kg/ha): 1
plant injury rating, Lacg (Lacg; 0.5605 kg/ha): 1
plant injury rating, Lacg (Lacg; 1.1210 kg/ha): 0
plant injury rating, Lacg (Lacg; 2.8025 kg/ha): 2
plant injury rating, Lacg (Lacg; 5.6050 kg/ha): 2
plant injury rating, Lacg (Lacg; 8.4075 kg/ha): 1
plant injury rating, Lacg (Lacg; 11.2100 kg/ha): 1
plant injury rating, Mogl (Mogl; 0.5605 kg/ha): 1
plant injury rating, Mogl (Mogl; 1.1210 kg/ha): 1
plant injury rating, Mogl (Mogl; 2.8025 kg/ha): 1
plant injury rating, Mogl (Mogl; 5.6050 kg/ha): 1
plant injury rating, Mogl (Mogl; 8.4075 kg/ha): 1
plant injury rating, Mogl (Mogl; 11.2100 kg/ha): 2
plant injury rating, Corn (Corn; 0.5605 kg/ha): 1
plant injury rating, Corn (Corn; 1.1210 kg/ha): 1
plant injury rating, Corn (Corn; 2.8025 kg/ha): 2
plant injury rating, Corn (Corn; 5.6050 kg/ha): 1
plant injury rating, Corn (Corn; 8.4075 kg/ha): 1
plant injury rating, Corn (Corn; 11.2100 kg/ha): 2
plant injury rating, Sobe (Sobe; 0.5605 kg/ha): 0
plant injury rating, Sobe (Sobe; 1.1210 kg/ha): 1
plant injury rating, Sobe (Sobe; 2.8025 kg/ha): 1
plant injury rating, Sobe (Sobe; 5.6050 kg/ha): 1
plant injury rating, Sobe (Sobe; 8.4075 kg/ha): 1
plant injury rating, Sobe (Sobe; 11.2100 kg/ha): 1
plant injury rating, Whez (Whez; 0.5605 kg/ha): 0
plant injury rating, Whez (Whez; 1.1210 kg/ha): 0
plant injury rating, Whez (Whez; 2.8025 kg/ha): 0
plant injury rating, Whez (Whez; 5.6050 kg/ha): 0
plant injury rating, Whez (Whez; 8.4075 kg/ha): 0
plant injury rating, Whez (Whez; 11.2100 kg/ha): 0
plant injury rating, Grso (Grso; 0.5605 kg/ha): 0
plant injury rating, Grso (Grso; 1.1210 kg/ha): 0
plant injury rating, Grso (Grso; 2.8025 kg/ha): 1
plant injury rating, Grso (Grso; 5.6050 kg/ha): 1
plant injury rating, Grso (Grso; 8.4075 kg/ha): 1
plant injury rating, Grso (Grso; 11.2100 kg/ha): 1
inhibition at 11200 g/ha (Morningglory): 75 to 100%
inhibition at 11200 g/ha (Barnyardgrass): 75 to 100%
inhibition at 11200 g/ha (Cocklebur): 25 to 49%
inhibition at 11200 g/ha (Yellow Nutsedge): 50 to 74%
inhibition at 11200 g/ha (Downy Brome): 75 to 100%
inhibition at 11200 g/ha (Velvetleaf): 75 to 100%
plant injury rating, Dobr (Dobr; 0.5605 kg/ha): 0
plant injury rating, Dobr (Dobr; 1.1210 kg/ha): 0
plant injury rating, Dobr (Dobr; 2.8025 kg/ha): 0
plant injury rating, Dobr (Dobr; 5.6050 kg/ha): 0
plant injury rating, Dobr (Dobr; 8.4075 kg/ha): 0
plant injury rating, Dobr (Dobr; 11.2100 kg/ha): 0
